PMC10669656, “ADMET and Solubility Analysis of New 5-Nitroisatine-Based Inhibitors of CDK2 Enzymes” (Biomedicines, 2023)
Converted amounts (≈) assume the structure as drawn. “And” between values parts separate entries of the source, which are not always exact repeats. Identical values can stand only once.

Tests used:
Format in all cases: physicochemical
[1] = Solubility in neat solvents, shake-flask with spectrophotometric determination; details: for solubility at 24 h: 25 °C, organic solvent or mixture, thermodynamic from solid
Description: (§1) The calibration curves for each derivative were obtained using successful dilutions of initial stock solutions followed by spectrophotometric measurements of the obtained solutions with decreasing concentration. The concentration ranges for the derivatives 1, 2, and 3 were 0.0081–0.0405 mg/mL, 0.0077–0.0385 mg/mL, and 0.0068–0.017 mg/mL, respectively. Methanol was used both as a solvent, as well as a reference for spectrophotometric measurements. […] The A360 spectrophotometer from AOE Instruments was used for the preparation of the calibration curves. […] Three calibration curves were prepared for each derivative and then averaged.
(§2) A multi-step procedure was employed in order to find the solubility of the studied derivatives in the selected solvents. First of all, the excess amount of the considered compound was added to test tubes containing either neat solvents or their mixtures with water in different proportions, thus forming binary solvents. Saturated solutions were obtained in this way, placed in a Shaker Incubator ES-20/60 from Biosan, and incubated for 24 h at 298.1 K. The temperature adjustment was possible with a 0.1-degree accuracy, and the variance within a 24 h cycle was 0.5 degrees. The samples were simultaneously mixed at 60 rev/min. After incubation, the samples were filtered with the help of plastic syringes equipped with PTFE filters with 0.22 µm pore size. The obtained filtrates were diluted with methanol in another set of test tubes. In order to determine the mole fractions of a solute in the solution, 1 mL of the filtered samples was weighed in 10 mL volumetric flasks using a RADWAG AS 110 R2.PLUS analytical balance. The samples diluted with methanol were measured spectrophotometrically using the same instrument as was used in the case of calibration curves. The spectra were recorded in the wavelength range of 190–500 nm, and the resolution was 1 nm. Methanol was used if further dilution of the sample was required, and it was also used as a reference for calibrating the spectrophotometer. The absorbance values at 315 nm, 321 nm, and 321 nm were taken into account for derivatives 1, 2, and 3, respectively. Based on the calibration curves, the concentration of the solute in the samples was determined together with its mole fraction. Three separate measurements were conducted, and the final values are the results of averaging them.

[2] = Solubility in NMP-water binary mixtures; details: for solubility at 24 h: thermodynamic from solid
Description: as §1, §2

[3] = Solubility in DMSO-water binary mixtures; details: for solubility at 24 h: 25 °C, thermodynamic from solid
Description: as §1, §2

[4] = neat γ-nonanoic lactone, 298.1 K

Compound Nc1cccc(C(=O)NN=C2C(=O)Nc3ccc([N+](=O)[O-])cc32)c1 [derivative 2, 3-Amino-N′-[5-nitro-2-oxo-1,2-dihydro-3H-indol-3-ylidene]benzohydrazide] has a solubility at 24 h ([1]; neat DMF, 298.1 K) of 15300 µg/mL (≈ 47 mM), a solubility at 24 h ([1]; neat DMP, 298.1 K) of 290 µg/mL (≈ 0.892 mM) and a solubility at 24 h ([1]; neat DMSO, 298.1 K) of 21400 µg/mL (≈ 65.8 mM). The solubility at 24 h ([1]; neat NMP, 298.1 K) was 32700 µg/mL (≈ 101 mM), the solubility at 24 h ([1]; neat acetone, 298.1 K) was 900 µg/mL (≈ 2.77 mM) and the solubility at 24 h ([1]; neat acetonitrile, 298.1 K) was 610 µg/mL (≈ 1.88 mM). It also gave a solubility at 24 h ([1]; neat cyrene, 298.1 K) of 750 µg/mL (≈ 2.31 mM), a solubility at 24 h ([1]; neat diglyme, 298.1 K) of 1190 µg/mL (≈ 3.66 mM) and a solubility at 24 h ([1]; neat dioxane, 298.1 K) of 960 µg/mL (≈ 2.95 mM). It also gave a solubility at 24 h ([1]; neat ethyl lactate, 298.1 K) of 560 µg/mL (≈ 1.72 mM), a solubility at 24 h ([1]; neat methanol, 298.1 K) of 310 µg/mL (≈ 0.953 mM) and a solubility at 24 h ([1]; neat tetraglyme, 298.1 K) of 1790 µg/mL (≈ 5.5 mM). It also gave a solubility at 24 h ([1]; neat triglyme, 298.1 K) of 420 µg/mL (≈ 1.29 mM), a solubility at 24 h ([1]; neat γ-heptalactone, 298.1 K) of 1090 µg/mL (≈ 3.35 mM) and a solubility at 24 h [1, 4] of 710 µg/mL (≈ 2.18 mM). For the same compound, the solubility at 24 h ([1]; neat 1-butanol) was 70 µg/mL (≈ 0.215 mM), the solubility x ([1]; neat 1-butanol, 298.1 K) was 0.21 (0.01) × 10^−4 mole fraction and the solubility at 24 h ([1]; neat 1-propanol) was 100 µg/mL (≈ 0.307 mM). The solubility x ([1]; neat 1-propanol, 298.1 K) was 0.23 (0.01) × 10^−4 mole fraction, the solubility at 24 h ([1]; neat 4FM) was 3470 µg/mL (≈ 10.7 mM) and the solubility x ([1]; neat 4FM, 298.1 K) was 1.06 (0.04) × 10^−3 mole fraction. For the same compound, the solubility x ([1]; neat DMF, 298.1 K) was 3.66 × 10^−3 mole fraction and 3.66 (0.06) × 10^−3 mole fraction, the solubility x ([1]; neat DMP, 298.1 K) was 1.05 (0.03) × 10^−4 mole fraction and the solubility x ([1]; neat DMSO, 298.1 K) was 4.63 × 10^−3 mole fraction and 4.63 (0.14) × 10^−3 mole fraction. The solubility x ([1]; neat NMP, 298.1 K) was 9.80 × 10^−3 mole fraction and 9.80 (0.13) × 10^−3 mole fraction, the solubility x ([1]; neat acetonitrile, 298.1 K) was 0.96 (0.03) × 10^−4 mole fraction and the solubility x ([1]; neat cyrene, 298.1 K) was 2.36 (0.04) × 10^−4 mole fraction. The solubility x ([1]; neat diglyme, 298.1 K) was 5.22 (0.10) × 10^−4 mole fraction, the solubility x ([1]; neat dioxane, 298.1 K) was 2.49 (0.05) × 10^−4 mole fraction and the solubility at 24 h ([1]; neat ethanol) was 150 µg/mL (≈ 0.461 mM). The solubility x ([1]; neat ethanol, 298.1 K) was 0.26 (0.01) × 10^−4 mole fraction, the solubility x ([1]; neat ethyl lactate, 298.1 K) was 1.95 (0.04) × 10^−4 mole fraction and the solubility x ([1]; neat methanol, 298.1 K) was 0.39 (0.01) × 10^−4 mole fraction. For the same compound, the solubility x ([1]; neat tetraglyme, 298.1 K) was 1.20 (0.02) × 10^−3 mole fraction, the solubility x ([1]; neat triglyme, 298.1 K) was 2.34 (0.06) × 10^−4 mole fraction and the solubility x ([1]; neat γ-heptalactone, 298.1 K) was 4.25 (0.06) × 10^−4 mole fraction. For the same compound, the solubility x [1, 4] was 3.46 (0.07) × 10^−4 mole fraction, the solubility at 24 h ([1]; neat ε-caprolactone) was 1010 µg/mL (≈ 3.1 mM) and the solubility x ([1]; neat ε-caprolactone, 298.1 K) was 3.25 (0.09) × 10^−4 mole fraction. The solubility at 24 h ([2]; NMP-water binary mixture, x*NMP 0.1, 25 °C, aqueous with cosolvent or surfactant or cyclodextrin, x*NMP 0.1, 298.1 K) was 5750 µg/mL (≈ 17.7 mM), the solubility at 24 h ([2]; NMP-water binary mixture, x*NMP 0.2, 25 °C, aqueous with cosolvent or surfactant or cyclodextrin, x*NMP 0.2, 298.1 K) was 12100 µg/mL (≈ 37.2 mM) and the solubility at 24 h ([2]; NMP-water binary mixture, x*NMP 0.3, 25 °C, aqueous with cosolvent or surfactant or cyclodextrin, x*NMP 0.3, 298.1 K) was 18200 µg/mL (≈ 56 mM). The solubility at 24 h ([2]; NMP-water binary mixture, x*NMP 0.4, 25 °C, aqueous with cosolvent or surfactant or cyclodextrin, x*NMP 0.4, 298.1 K) was 23300 µg/mL (≈ 71.6 mM), the solubility at 24 h ([2]; NMP-water binary mixture, x*NMP 0.7, 25 °C, aqueous with cosolvent or surfactant or cyclodextrin, x*NMP 0.7, 298.1 K) was 34500 µg/mL (≈ 106 mM) and the solubility at 24 h ([2]; NMP-water binary mixture, x*NMP 0.8, 25 °C, aqueous with cosolvent or surfactant or cyclodextrin, x*NMP 0.8, 298.1 K) was 35900 µg/mL (≈ 110 mM). The solubility at 24 h ([2]; NMP-water binary mixture, x*NMP 0.9, 25 °C, aqueous with cosolvent or surfactant or cyclodextrin, x*NMP 0.9, 298.1 K) was 34900 µg/mL (≈ 107 mM), the solubility at 24 h ([2]; NMP-water binary solvent, 25 °C, aqueous with cosolvent or surfactant or cyclodextrin, x*NMP 0.5, 298.1 K) was 29500 µg/mL (≈ 90.7 mM) and the solubility at 24 h ([2]; NMP-water binary solvent, 25 °C, aqueous with cosolvent or surfactant or cyclodextrin, x*NMP 0.6, 298.1 K) was 33000 µg/mL (≈ 101 mM). For the same compound, the solubility at 24 h ([2]; NMP-water series, x*NMP 1.0, 25 °C, organic solvent or mixture, x*NMP 1.0, 298.1 K) was 32700 µg/mL (≈ 101 mM), the solubility x ([2]; x*NMP 0.1, 298.1 K) was 4.43 (0.05) × 10^−4 mole fraction and the solubility x ([2]; x*NMP 0.2, 298.1 K) was 1.23 (0.01) × 10^−3 mole fraction. The solubility x ([2]; x*NMP 0.3, 298.1 K) was 2.32 (0.03) × 10^−3 mole fraction, the solubility x ([2]; x*NMP 0.4, 298.1 K) was 3.53 (0.04) × 10^−3 mole fraction and the solubility x ([2]; x*NMP 0.5, 298.1 K) was 5.24 (0.06) × 10^−3 mole fraction. For the same compound, the solubility x ([2]; x*NMP 0.6, 298.1 K) was 6.71 (0.08) × 10^−3 mole fraction, the solubility x ([2]; x*NMP 0.7, 298.1 K) was 7.95 (0.08) × 10^−3 mole fraction and the solubility x ([2]; x*NMP 0.8, 298.1 K) was 8.96 (0.09) × 10^−3 mole fraction. The solubility x ([2]; x*NMP 0.9, 298.1 K) was 9.53 (0.11) × 10^−3 mole fraction, the solubility x ([2]; x*NMP 1.0, 298.1 K) was 9.80 (0.13) × 10^−3 mole fraction and the solubility at 24 h ([3]; DMSO-water binary mixture, aqueous with cosolvent or surfactant or cyclodextrin, x*DMSO 0.1, 298.1 K) was 3220 µg/mL (≈ 9.9 mM). It also gave a solubility at 24 h ([3]; DMSO-water binary mixture, aqueous with cosolvent or surfactant or cyclodextrin, x*DMSO 0.2, 298.1 K) of 6950 µg/mL (≈ 21.4 mM), a solubility at 24 h ([3]; DMSO-water binary mixture, aqueous with cosolvent or surfactant or cyclodextrin, x*DMSO 0.3, 298.1 K) of 10800 µg/mL (≈ 33.2 mM) and a solubility at 24 h ([3]; DMSO-water binary mixture, aqueous with cosolvent or surfactant or cyclodextrin, x*DMSO 0.4, 298.1 K) of 14300 µg/mL (≈ 44 mM). For the same compound, the solubility at 24 h ([3]; DMSO-water binary mixture, aqueous with cosolvent or surfactant or cyclodextrin, x*DMSO 0.5, 298.1 K) was 18400 µg/mL (≈ 56.6 mM), the solubility at 24 h ([3]; DMSO-water binary mixture, aqueous with cosolvent or surfactant or cyclodextrin, x*DMSO 0.6, 298.1 K) was 21000 µg/mL (≈ 64.6 mM) and the solubility at 24 h ([3]; DMSO-water binary mixture, aqueous with cosolvent or surfactant or cyclodextrin, x*DMSO 0.7, 298.1 K) was 24100 µg/mL (≈ 74.1 mM). For the same compound, the solubility at 24 h ([3]; DMSO-water binary mixture, aqueous with cosolvent or surfactant or cyclodextrin, x*DMSO 0.8, 298.1 K) was 25400 µg/mL (≈ 78.1 mM), the solubility at 24 h ([3]; DMSO-water binary mixture, aqueous with cosolvent or surfactant or cyclodextrin, x*DMSO 0.9, 298.1 K) was 24100 µg/mL (≈ 74.1 mM) and the solubility at 24 h ([3]; DMSO-water series, organic solvent or mixture, x*DMSO 1.0, 298.1 K) was 21400 µg/mL (≈ 65.8 mM). For the same compound, the solubility x ([3]; x*DMSO 0.1, 298.1 K) was 2.11 (0.02) × 10^−4 mole fraction, the solubility x ([3]; x*DMSO 0.2, 298.1 K) was 5.76 (0.06) × 10^−4 mole fraction and the solubility x ([3]; x*DMSO 0.3, 298.1 K) was 1.08 (0.01) × 10^−3 mole fraction. For the same compound, the solubility x ([3]; x*DMSO 0.4, 298.1 K) was 1.69 (0.02) × 10^−3 mole fraction, the solubility x ([3]; x*DMSO 0.5, 298.1 K) was 2.46 (0.02) × 10^−3 mole fraction and the solubility x ([3]; x*DMSO 0.6, 298.1 K) was 3.18 (0.03) × 10^−3 mole fraction. The solubility x ([3]; x*DMSO 0.7, 298.1 K) was 4.01 (0.05) × 10^−3 mole fraction, the solubility x ([3]; x*DMSO 0.8, 298.1 K) was 4.68 (0.03) × 10^−3 mole fraction and the solubility x ([3]; x*DMSO 0.9, 298.1 K) was 4.86 (0.08) × 10^−3 mole fraction. For the same compound, the solubility x ([3]; x*DMSO 1.0, 298.1 K) was 4.63 (0.14) × 10^−3 mole fraction.
